Reference: patent publication US10851067B2, “Kv7 channel activators compositions and methods of use” (Knopp Biosciences LLC, priority 2018, dated 2020)
Values belong to the molecule of their own block, whether it stands above or below them.

Target: Kv7.2/7.3 (Homo sapiens, UniProt O43525+O43526)
Experiment: Kv7.2/7.3 Thallium Flux Assay
Type: cell-based
Design: host or cells: HEK cells, tetracycline-inducible expression
Conditions: read-out: Kv7.2/7.3 Activity: EC50 of Kv7.2/Kv7.3 activation
Source text: The Thallium Flux Assay is used as a surrogate indicator of potassium channel activity.
The experimental protocol was adapted from the FluxOR™ II Green Potassium Ion Channel Assay User Guide (Pub. No. MAN0016084, Invitrogen). Conditions were optimized for the Kv7.2/7.3 cell line.
The hKV7.2/7.3 cell line was obtained from Chantest (Cleveland, Ohio 44128) cat. #CT6147.
Kv7.2/7.3 cells were maintained in a media containing DMEM/F12; 50/50 (GIBCO cat. #11330), 10% Fetal Bovine Serum (FBS) (GIBCO cat. #26140), 100 units/mL Penicillin-Streptomycin (GIBCO cat. #15140), 0.005 mg/ml Blasticidin (SIGMA 15205), 0.5 mg/mL Geneticin (GIBCO cat. #10131), and 0.1 mg/mL Zeocin (GIBCO cat. #R25001). One day prior to experimentation, cells were plated in 96 well clear bottom plates (Corning cat. #353219) in a media without Blasticidin, Geneticin, or Zeocin. Channel expression was induced by adding tetracycline (Bioline cat. #BIO87030) at a final concentration of 10 ng/mL.
The test compound is diluted in a mixture of 0.1% DMSO/extracellular solution with an eight-point concentration range from 0.014 μM to 30 μM. Serial dilutions were made on a Biomek NXP (BECKMAN COULTER).
Measurement and Data Analysis:
A plate reader (Enspire, Perkin Elmer) is used to characterize the ion-channel modulating properties of novel compounds using an excitation wavelength of 475 nm and an emission wavelength of 530 nm. After a 15 sec baseline measurement, the stimulus buffer containing thallium and potassium is injected. A final endpoint measure is taken after 90 sec. Responses are normalized to positive control (retigabine, 30 µM max). Mean normalized responses at each concentration tested are fit to the standard Hill equation to generate an EC50 and maximal response.

SMILES: CC(C(=O)Nc1nc2c(F)cc(C(C)(C)O)cc2n1C1CCC1)C(C)(C)C(F)(F)F (single isomer, unassigned) [Example 515, N-(1-cyclobutyl-4-fluoro-6-(2-hydroxypropan-2-yl)-1H-benzo[d]imidazol-2-yl)-4,4,4-trifluoro-2,3,3-trimethylbutanamide]
EC50: < 1000 nM

SMILES: CC(C)(O)c1cc(F)c2nc(NC(=O)C3(CC(F)F)CC3)n(C3CCC3)c2c1 [Example 502, N-(1-cyclobutyl-4-fluoro-6-(2-hydroxypropan-2-yl)-1H-benzo[d]imidazol-2-yl)-1-(2,2-difluoroethyl)cyclopropane-1-carboxamide]
EC50: 3000 to 10000 nM

SMILES: COc1cc(C#N)cc2c1nc(NC(=O)CC1(C(F)(F)F)CC1)n2C(C)(C)C [Example 520, N-(1-(tert-butyl)-6-cyano-4-methoxy-1H-benzo[d]imidazol-2-yl)-2-(1-(trifluoromethyl)cyclopropyl)acetamide]
EC50: 3000 to 10000 nM

SMILES: CC(C(=O)Nc1nc2c(F)cc(C(C)(C)O)cc2n1C1CCC1)C1(C(F)(F)F)CC1 (single isomer, unassigned) [Example 508, N-(1-cyclobutyl-4-fluoro-6-(2-hydroxypropan-2-yl)-1H-benzo[d]imidazol-2-yl)-2-(1-(trifluoromethyl)cyclopropyl)propanamide]
EC50: 1000 to 3000 nM

SMILES: CC(C)(C)n1c(NC(=O)CC2CC(F)(F)C2(F)F)nc2cc(F)ccc21 (single isomer, unassigned) [Example 529, N-(1-(tert-butyl)-5-fluoro-1H-benzo[d]imidazol-2-yl)-2-(2,2,3,3-tetrafluorocyclobutyl)acetamide]
EC50: < 1000 nM

SMILES: CC(C)(n1c(NC(=O)CC2CC(F)(F)C2(F)F)nc2ccc(C#N)cc21)C(F)(F)F (single isomer, unassigned) [Example 488, N-(6-cyano-1-(1,1,1-trifluoro-2-methylpropan-2-yl)-1H-benzo[d]imidazol-2-yl)-2-(2,2,3,3-tetrafluorocyclobutyl)acetamide]
EC50: < 1000 nM

SMILES: COc1cc(C#N)cc2c1nc(NC(=O)C13CCC(C1)C3)n2C(C)(C)C [Example 510, N-(1-(tert-butyl)-6-cyano-4-methoxy-1H-benzo[d]imidazol-2-yl)bicyclo[2.1.1]hexane-1-carboxamide]
EC50: 1000 to 3000 nM

SMILES: CC(C(=O)Nc1nc2cc(F)c(F)cc2n1C1(C)CCC1)C1(C(F)(F)F)CC1 (single isomer, unassigned) [Example 540, N-(5,6-difluoro-1-(1-methylcyclobutyl)-1H-benzo[d]imidazol-2-yl)-2-(1-(trifluoromethyl)cyclopropyl)propanamide]
EC50: < 1000 nM

SMILES: CC(C)(C)n1c(NC(=O)CC2CC(F)(F)C2(F)F)nc2c(F)cc(C#N)c(F)c21 (single isomer, unassigned) [Example 496, N-(1-(tert-butyl)-6-cyano-4,7-difluoro-1H-benzo[d]imidazol-2-yl)-2-(2,2,3,3-tetrafluorocyclobutyl)acetamide]
EC50: < 1000 nM

SMILES: CC(C)(C)n1c(NC(=O)CC2CC(F)(F)C2(F)F)nc2cc(F)c(F)cc21 (single isomer, unassigned) [Example 557, N-(1-(tert-butyl)-5,6-difluoro-1H-benzo[d]imidazol-2-yl)-2-(2,2,3,3-tetrafluorocyclobutyl)acetamide]
EC50: < 1000 nM

SMILES: CC(C(=O)Nc1nc2c(F)cc(C(C)(C)O)cc2n1C1CCC1)C1(C(F)(F)F)CC1 (single isomer, unassigned) [Example 497, N-(1-cyclobutyl-4-fluoro-6-(2-hydroxypropan-2-yl)-1H-benzo[d]imidazol-2-yl)-2-(1-(trifluoromethyl)cyclopropyl)propanamide]
EC50: < 1000 nM

The remaining lines, values ahead:

EC50: < 1000 nM
SMILES: CC(C)(C)CC(=O)Nc1nc2ccc(F)c(Br)c2n1C1(C)CCC1 [Example 550, N-(7-bromo-6-fluoro-1-(1-methylcyclobutyl)-1H-benzo[d]imidazol-2-yl)-3,3-dimethylbutanamide]

EC50: < 1000 nM
SMILES: CC(C)(C)CC(=O)Nc1nc2ccc(C3(O)CCC3)c(OC(F)(F)F)c2n1C1CCC1 [Example 487, N-(1-cyclobutyl-6-(1-hydroxycyclobutyl)-7-(trifluoromethoxy)-1H-benzo[d]imidazol-2-yl)-3,3-dimethylbutanamide]

EC50: < 1000 nM
SMILES: CC(C)(O)c1ccc2nc(NC(=O)CC34CC(C3)C4)n(C3(C)CCC3)c2c1 [Example 511, 2-(bicyclo[1.1,1]pentan-1-yl)-N-(6-(2-hydroxypropan-2-yl)-1-(1-methylcyclobutyl)-1H-benzo[d]imidazol-2-yl)acetamide]

EC50: < 1000 nM
SMILES: CC(C)(C)n1c(NC(=O)CC2(C(F)(F)F)CC2)nc2cc(F)cc(F)c21 [Example 531, N-(1-(tert-butyl)-5,7-difluoro-1H-benzo[d]imidazol-2-yl)-2-(1-(trifluoromethyl)cyclopropyl)acetamide]

EC50: < 1000 nM
SMILES: CC(C)(C)CC(=O)Nc1nc2ccc(C3(O)CCC3)c(C(F)(F)F)c2n1C1CCC1 [Example 490, N-(1-cyclobutyl-6-(1-hydroxycyclobutyl)-7-(trifluoromethyl)-1H-benzo[d]imidazol-2-yl)-3,3-dimethylbutanamide]

EC50: < 1000 nM
SMILES: CC(C)(O)c1cc(F)c2nc(NC(=O)CC3CC(F)(F)C3(F)F)n(C3(C)CCC3)c2c1 (single isomer, unassigned) [Example 519, N-(4-fluoro-6-(2-hydroxypropan-2-yl)-1-(1-methylcyclobutyl)-1H-benzo[d]imidazol-2-yl)-2-(2,2,3,3-tetrafluorocyclobutyl)acetamide]

EC50: < 1000 nM
SMILES: CC1(n2c(NC(=O)CC3CC(F)(F)C3(F)F)nc3cc(F)cc(C#N)c32)CCC1 (single isomer, unassigned) [Example 545, N-(7-cyano-5-fluoro-1-(1-methylcyclobutyl)-1H-benzo[d]imidazol-2-yl)-2-(2,2,3,3-tetrafluorocyclobutyl)acetamide]

EC50: < 1000 nM
SMILES: CC1(n2c(NC(=O)CC3CC(F)(F)C3(F)F)nc3cc(F)ccc32)CCC1 (single isomer, unassigned) [Example 525, N-(5-fluoro-1-(1-methylcyclobutyl)-1H-benzo[d]imidazol-2-yl)-2-(2,2,3,3-tetrafluorocyclobutyl)acetamide]

EC50: < 1000 nM
SMILES: CC(C)(C)CC(=O)Nc1nc2c(F)cc(C#N)c(F)c2n1C1(C)CCC1 [Example 517, N-(6-cyano-4,7-difluoro-1-(1-methylcyclobutyl)-1H-benzo[d]imidazol-2-yl)-3,3-dimethylbutanamide]

EC50: < 1000 nM
SMILES: CC1(n2c(NC(=O)CC(C)(C)C(F)(F)F)nc3c(F)cc(C#N)cc32)CCC1 [Example 486, N-(6-cyano-4-fluoro-1-(1-methylcyclobutyl)-1H-benzo[d]imidazol-2-yl)-4,4,4-trifluoro-3,3-dimethylbutanamide]

EC50: < 1000 nM
SMILES: CC(C)(CC(=O)Nc1nc2ccc(F)c(C#N)c2n1C1(C)CCC1)C1CC1 [Example 541, N-(7-cyano-6-fluoro-1-(1-methylcyclobutyl)-1H-benzo[d]imidazol-2-yl)-3-cyclopropyl-3-methylbutanamide]

EC50: < 1000 nM
SMILES: CC(C)(CC(=O)Nc1nc2cc(F)cc(C#N)c2n1C1(C)CCC1)C1CC1 [Example 547, N-(7-cyano-5-fluoro-1-(1-methylcyclobutyl)-1H-benzo[d]imidazol-2-yl)-3-cyclopropyl-3-methylbutanamide]

EC50: < 1000 nM
SMILES: CC1(n2c(NC(=O)CC3CC(F)(F)C3(F)F)nc3c(F)ccc(C#N)c32)CCC1 (single isomer, unassigned) [Example 548, N-(7-cyano-4-fluoro-1-(1-methylcyclobutyl)-1H-benzo[d]imidazol-2-yl)-2-(2,2,3,3-tetrafluorocyclobutyl)acetamide]

EC50: < 1000 nM
SMILES: CC(C(=O)Nc1nc2ccc(Cl)c(F)c2n1C1(C)CCC1)C1(C(F)(F)F)CC1 (single isomer, unassigned) [Example 556, N-(6-chloro-7-fluoro-1-(1-methylcyclobutyl)-1H-benzo[d]imidazol-2-yl)-2-(1-(trifluoromethyl)cyclopropyl)propanamide]

EC50: < 1000 nM
SMILES: CC1(n2c(NC(=O)CC3CC(F)(F)C3(F)F)nc3ccc(F)c(C#N)c32)CCC1 (single isomer, unassigned) [Example 537, N-(7-cyano-6-fluoro-1-(1-methylcyclobutyl)-1H-benzo[d]imidazol-2-yl)-2-(2,2,3,3-tetrafluorocyclobutyl)acetamide]

EC50: < 1000 nM
SMILES: CC1(n2c(NC(=O)CC3CC(F)(F)C3(F)F)nc3cc(F)c(Cl)cc32)CCC1 (single isomer, unassigned) [Example 539, N-(6-chloro-5-fluoro-1-(1-methylcyclobutyl)-1H-benzo[d]imidazol-2-yl)-2-(2,2,3,3-tetrafluorocyclobutyl)acetamide]

EC50: < 1000 nM
SMILES: CC(C)(C)CC(=O)Nc1nc2ccc(C#N)c(C(F)(F)F)c2n1C1CCC1 [Example 507, N-(6-cyano-1-cyclobutyl-7-(trifluoromethyl)-1H-benzo[d]imidazol-2-yl)-3,3-dimethylbutanamide]
